Experimental data published in patent publication US11578343B2, “CAS9 proteins including ligand-dependent inteins” (President and Fellows of Harvard College, priority 2014, dated 2023).

How the values were obtained:
Format in all cases: cell-based, human
CLTA genomic site = assay: T7 Endonuclease I Surveyor assay of genomic modification; conditions: FIG. 2
Description: (§1) The presence of two bands corresponding to smaller DNA fragments (the fragments are approximately the same size for EMX) indicates genomic modification.
(§2) 4-HT (1 μM) was added during transfection for +4-HT samples. 12 hours after transfection the media was replaced. 60 hours after transfection, cells were trypsinized and genomic DNA was isolated using the DNAdvance kit (Agencourt). […] PCR products were purified with a QIAquick PCR Purification Kit (Qiagen) and quantified with a Quant-iT PicoGreen dsDNA Kit (Life Technologies). 200 ng of purified PCR DNA was then combined with 2 μL of NEBuffer 2 (NEB) in a total volume of 19 μL and denatured then re-annealed with thermocycling at 95° C. for 5 min, 95-85° C. at 2° C./s, 85-20° C. at 0.2° C./s. The re-annealed DNA was incubated with 1 μL of T7 Endonuclease I (10 U/μL, NEB) at 37° C. for 15 min. 10 μL of 50% glycerol was added to the T7 Endonuclease reaction and 15 μL was analyzed on a 5% TBE 18-well Criterion PAGE gel (Bio-Rad) electrophoresed for 30 min at 200V and stained with EtBr for 15 min.

EMX genomic site = assay: as above; conditions: FIG. 2
Description: as §1, §2

VEGF genomic site = assay: as above; conditions: FIG. 2
Description: as §1, §2

CLTA Off 1 = assay: High-throughput DNA sequencing of genome modifications; conditions: 500 ng Cas9 plasmid; for Mod. Freq (indels/total sequences), CLTA Off 1: Table 4
Description: (§3) We assayed these Cas9:sgRNA combinations in human cells for their ability to modify the three on-target loci as well as 11 known off-target genomic sites (Table 3)^4,5,10,13. Cells were treated with or without 1 μM 4-HT during transfection, and after 12 h the media was replaced with fresh media lacking 4-HT. […] Genomic DNA was isolated 60 h post-transfection and analyzed by high-throughput DNA sequencing
(§4) High-throughput DNA sequencing of genome modifications. HEK293-GFP stable cells were transfected with plasmids expressing Cas9 (500 ng) and sgRNA (125 ng) as described above. […] 4-HT (1 μM final), where appropriate, was added during transfection. 12 h after transfection, the media was replaced with full serum media without 4-HT. Genomic DNA was isolated and pooled from three biological replicates 60 h after transfection using a previously reported^11 protocol with a DNAdvance Kit (Agencourt). 150 ng or 200 ng of genomic DNA was used as a template to amplify by PCR the on-target and off-target genomic sites with flanking HTS primer pairs described previously^11. PCR products were purified using RapidTips (Diffinity Genomics) and quantified using the PicoGreen dsDNA Assay Kit (Invitrogen). Purified DNA was PCR amplified with primers containing sequencing adaptors, purified with the MinElute PCR Purification Kit (Qiagen) and AMPure XP PCR Purification (Agencourt). Samples were sequenced on a MiSeq high-throughput DNA sequencer (Illumina), and sequencing data was analyzed as described previously^4.
(§5) Sensitivity limit of off-target cleavage assays. We used paired end sequencing to identify indels caused by genomic on- and off-target cleavage. […] A 1 ng sample of human gDNA represents only ˜330 unique genomes, and thus only ˜330 unique copies of each genomic site are present. PCR amplification for each genomic target was performed on a total of 150 ng or 200 ng of input gDNA, which provides amplicons derived from at most 50,000 or 65,000 unique gDNA copies, respectively. Therefore, the high-throughput sequencing assay cannot detect rare genome modification events that occur at a frequency of less than approximately 1 in 50,000 (0.002%). When comparing between two conditions, such as wt Cas9 vs. intein-Cas9, this threshold becomes approximately 10 in 50,000 (0.02%) when using the Fisher exact test and a conservative multiple comparison correction (Bonferroni with 14 samples). See also Minoche, A. E., Dohm, J. C., & Himmelbauer, H. Evaluation of genomic high-throughput sequencing data generated on Illumina HiSeq and Genome Analyzer systems. Genome Biology 12, R112 (2011).

CLTA Off 2 = assay: as above; conditions: 500 ng Cas9 plasmid; for Mod. Freq (indels/total sequences), CLTA Off 2: Table 4
Description: as §3, §4, §5

CLTA Off 3 = assay: as above; conditions: 500 ng Cas9 plasmid; for Mod. Freq (indels/total sequences), CLTA Off 3: Table 4
Description: as §3, §4, §5

CLTA On = assay: as above; conditions: 500 ng Cas9 plasmid; for Mod. Freq (indels/total sequences), CLTA On: Table 4
Description: as §3, §4, §5

EMX Off 1 = assay: as above; conditions: 500 ng Cas9 plasmid; for Mod. Freq (indels/total sequences), EMX Off 1: Table 4
Description: as §3, §4, §5

EMX Off 2 = assay: as above; conditions: 500 ng Cas9 plasmid; for Mod. Freq (indels/total sequences), EMX Off 2: Table 4
Description: as §3, §4, §5

EMX Off 3 = assay: as above; conditions: 500 ng Cas9 plasmid; for Mod. Freq (indels/total sequences), EMX Off 3: Table 4
Description: as §3, §4, §5

EMX Off 4 = assay: as above; conditions: 500 ng Cas9 plasmid; for Mod. Freq (indels/total sequences), EMX Off 4: Table 4
Description: as §3, §4, §5

EMX On = assay: as above; conditions: 500 ng Cas9 plasmid; for Mod. Freq (indels/total sequences), EMX On: Table 4
Description: as §3, §4, §5

VEGF Off 1 = assay: as above; conditions: 500 ng Cas9 plasmid; for Mod. Freq (indels/total sequences), VEGF Off 1: Table 4
Description: as §3, §4, §5

VEGF Off 2 = assay: as above; conditions: 500 ng Cas9 plasmid; for Mod. Freq (indels/total sequences), VEGF Off 2: Table 4
Description: as §3, §4, §5

VEGF Off 3 = assay: as above; conditions: 500 ng Cas9 plasmid; for Mod. Freq (indels/total sequences), VEGF Off 3: Table 4
Description: as §3, §4, §5

VEGF Off 4 = assay: as above; conditions: 500 ng Cas9 plasmid; for Mod. Freq (indels/total sequences), VEGF Off 4: Table 4
Description: as §3, §4, §5

VEGF On = assay: as above; conditions: 500 ng Cas9 plasmid; for Mod. Freq (indels/total sequences), VEGF On: Table 4
Description: as §3, §4, §5

## intein(Ser219)-Cas9: Cas9 with 37R3-2 intein replacing Ser219 (SEQ ID NO: 30)
CLTA genomic site; +4-HT (1 μM)
  Genomic modification of target site (T7E1 gel): comparable to modification by wild-type Cas9
CLTA genomic site; absence of 4-HT
  Genomic modification of target site (T7E1 gel): some background cleavage
EMX genomic site; +4-HT (1 μM)
  Genomic modification of target site (T7E1 gel): comparable to modification by wild-type Cas9
EMX genomic site; absence of 4-HT
  Genomic modification of target site (T7E1 gel): minimal or no modification
VEGF genomic site; +4-HT (1 μM)
  Genomic modification of target site (T7E1 gel): comparable to modification by wild-type Cas9
VEGF genomic site; absence of 4-HT
  Genomic modification of target site (T7E1 gel): minimal or no modification
CLTA Off 1; +4-HT (1 μM, 12 h)
  Mod. Freq (indels/total sequences), CLTA Off 1: 0.36%
CLTA Off 1; +4-HT, Table 6
  Mod Freq (indels/total sequences), CLTA Off 1: 0.23%
CLTA Off 1; −4-HT
  Mod. Freq (indels/total sequences), CLTA Off 1: 0.01%
CLTA Off 2; +4-HT (1 μM, 12 h)
  Mod. Freq (indels/total sequences), CLTA Off 2: 0.00%
CLTA Off 2; +4-HT, Table 6
  Mod Freq (indels/total sequences), CLTA Off 2: 0.00%
CLTA Off 2; −4-HT
  Mod. Freq (indels/total sequences), CLTA Off 2: 0.00%
CLTA Off 3; +4-HT (1 μM, 12 h)
  Mod. Freq (indels/total sequences), CLTA Off 3: 0.03%
CLTA Off 3; +4-HT, Table 6
  Mod Freq (indels/total sequences), CLTA Off 3: 0.01%
CLTA Off 3; −4-HT
  Mod. Freq (indels/total sequences), CLTA Off 3: 0.00%
CLTA On; +4-HT (1 μM, 12 h)
  Mod. Freq (indels/total sequences), CLTA On: 14.48%
CLTA On; +4-HT, Table 6
  Mod Freq (indels/total sequences), CLTA On: 9.13%
CLTA On; −4-HT
  Mod. Freq (indels/total sequences), CLTA On: 4.30%
EMX Off 1; +4-HT (1 μM, 12 h)
  Mod. Freq (indels/total sequences), EMX Off 1: 0.42%
EMX Off 1; +4-HT, Table 6
  Mod Freq (indels/total sequences), EMX Off 1: 0.20%
EMX Off 1; −4-HT
  Mod. Freq (indels/total sequences), EMX Off 1: 0.01%
EMX Off 2; +4-HT (1 μM, 12 h)
  Mod. Freq (indels/total sequences), EMX Off 2: 0.04%
EMX Off 2; +4-HT, Table 6
  Mod Freq (indels/total sequences), EMX Off 2: 0.04%
EMX Off 2; −4-HT
  Mod. Freq (indels/total sequences), EMX Off 2: 0.02%
EMX Off 3; +4-HT (1 μM, 12 h)
  Mod. Freq (indels/total sequences), EMX Off 3: 0.77%
EMX Off 3; +4-HT, Table 6
  Mod Freq (indels/total sequences), EMX Off 3: 0.54%
EMX Off 3; −4-HT
  Mod. Freq (indels/total sequences), EMX Off 3: 0.05%
EMX Off 4; +4-HT (1 μM, 12 h)
  Mod. Freq (indels/total sequences), EMX Off 4: 3.16%
EMX Off 4; +4-HT, Table 6
  Mod Freq (indels/total sequences), EMX Off 4: 2.18%
EMX Off 4; −4-HT
  Mod. Freq (indels/total sequences), EMX Off 4: 0.19%
EMX On; +4-HT (1 μM, 12 h)
  Mod. Freq (indels/total sequences), EMX On: 13.57%
EMX On; +4-HT, Table 6
  Mod Freq (indels/total sequences), EMX On: 8.25%
EMX On; −4-HT
  Mod. Freq (indels/total sequences), EMX On: 1.87%
VEGF Off 1; +4-HT (1 μM, 12 h)
  Mod. Freq (indels/total sequences), VEGF Off 1: 8.50%
VEGF Off 1; +4-HT, Table 6
  Mod Freq (indels/total sequences), VEGF Off 1: 4.61%
VEGF Off 1; −4-HT
  Mod. Freq (indels/total sequences), VEGF Off 1: 0.43%
VEGF Off 2; +4-HT (1 μM, 12 h)
  Mod. Freq (indels/total sequences), VEGF Off 2: 1.49%
VEGF Off 2; +4-HT, Table 6
  Mod Freq (indels/total sequences), VEGF Off 2: 0.90%
VEGF Off 2; −4-HT
  Mod. Freq (indels/total sequences), VEGF Off 2: 0.08%
VEGF Off 3; +4-HT (1 μM, 12 h)
  Mod. Freq (indels/total sequences), VEGF Off 3: 0.37%
VEGF Off 3; +4-HT, Table 6
  Mod Freq (indels/total sequences), VEGF Off 3: 0.16%
VEGF Off 3; −4-HT
  Mod. Freq (indels/total sequences), VEGF Off 3: 0.04%
VEGF Off 4; +4-HT (1 μM, 12 h)
  Mod. Freq (indels/total sequences), VEGF Off 4: 3.89%
VEGF Off 4; +4-HT, Table 6
  Mod Freq (indels/total sequences), VEGF Off 4: 2.03%
VEGF Off 4; −4-HT
  Mod. Freq (indels/total sequences), VEGF Off 4: 0.10%
VEGF On; +4-HT (1 μM, 12 h)
  Mod. Freq (indels/total sequences), VEGF On: 3.66%
VEGF On; +4-HT, Table 6
  Mod Freq (indels/total sequences), VEGF On: 3.17%
VEGF On; −4-HT
  Mod. Freq (indels/total sequences), VEGF On: 1.05%
